Patent US4065461A, “Amino containing pyridyloxy propanols” (Aktieselskabet Grindstedvaerket, priority 1975, dated 1977)
Like-named read-outs stand apart in the source and are kept apart here.

Columns and labels:
β2 -receptors = target: T1, β2 -receptors (Felis catus, UniProt Q9TST5); assay: β2-adrenoreceptor blockade: antagonism of isoprenaline-induced reduction in tone in the peripheral vasculature (hind quarter perfusion pressure) in anaesthetized cats; format: in vivo; conditions: cat, read-out: Approximate ED50 value for β2 -receptor blockade
T1 construct: The test animals were adult cats of either sex; from tissue; host or cells: hind quarter vasculature of anaesthetized cat, in vivo
Source text: (§1) The examinations thus comprise selective effect against isoprenaline-induced changes in heart rate, which are presumed to be elicited by stimulation of β1 -receptors; and against the reduction in tone in the peripheral vasculature induced by the said agonist is presumed to be due to stimulation of β2 -receptors.
(§2) The test animals were adult cats of either sex.
(§3) The heart rate was derived electronically from the blood pressure in the right carotid artery, and the reduction in tone in the peripheral vasculature was determined by recording changes in hind quarter vascular resistance.
(§4) Each cat was dosed repeatedly at 15 minutes' intervals throughout the experiment with 1 μg isoprenaline as the hydrochloride, the dose of this and the other standard drugs being stated in terms of the base. When constant responses of both heart rate and hind quarter perfusion pressure were obtained, a dose of 4 μg/kg of one of the test compounds was administered intraveneously 2 minutes before the isoprenaline dose. This initial dose of the test compound was administered again 15 minutes later. Thereafter, the test compound was administered at 15 minutes' intervals, each successive dose being twice the preceeding dose, the injection always being given two minutes prior to the next isoprenaline dose. […] In this way, cumulative dose-response curves for the effects of each test compound could be calculated and approximately ED50 values obtained.

in vivo = conditions: mouse, iv
β1 -receptors [1] = assay: β1-adrenoreceptor blockade: antagonism of isoprenaline-induced changes in heart rate in anaesthetized cats; format: in vivo; conditions: for ratio between these two activities (ED50 β2 / ED50 β1): anaesthetized cats, intravenous, Table I; for selectivity for β1 -receptors versus β2 -receptors, in words: conclusion from Table I
Source text: as §1, §2, §3, §4

β1 -receptors [2] = target: T2, β1 -receptors (Felis catus, UniProt Q9TST6); assay: as above; format: in vivo; conditions: for ED50: cat, read-out: Approximate ED50 value for β1 -receptor blockade; for potency as antagonist of the β1 -receptors relative to propranolol: compared with propranolol, Table I; for activity as antagonist of the β1 -receptors, in words: conclusion from Table I
T2 construct: The test animals were adult cats of either sex; from tissue; host or cells: heart of anaesthetized cat, in vivo
Source text: as §1, §2, §3, §4

mice = conditions: for toxicity, in words: conclusion from Table II
[3] = test system: β1 -receptors and β2 -receptors; conditions: background; cited from earlier work
[4] = anaesthetized cats, intravenous, cumulative doses, isoprenaline-induced change in hind quarter perfusion pressure
[5] = anaesthetized cats, intravenous, cumulative doses, isoprenaline-induced change in heart rate

T1 sequence (Q9TST5 whole entry, the tested form may be a part): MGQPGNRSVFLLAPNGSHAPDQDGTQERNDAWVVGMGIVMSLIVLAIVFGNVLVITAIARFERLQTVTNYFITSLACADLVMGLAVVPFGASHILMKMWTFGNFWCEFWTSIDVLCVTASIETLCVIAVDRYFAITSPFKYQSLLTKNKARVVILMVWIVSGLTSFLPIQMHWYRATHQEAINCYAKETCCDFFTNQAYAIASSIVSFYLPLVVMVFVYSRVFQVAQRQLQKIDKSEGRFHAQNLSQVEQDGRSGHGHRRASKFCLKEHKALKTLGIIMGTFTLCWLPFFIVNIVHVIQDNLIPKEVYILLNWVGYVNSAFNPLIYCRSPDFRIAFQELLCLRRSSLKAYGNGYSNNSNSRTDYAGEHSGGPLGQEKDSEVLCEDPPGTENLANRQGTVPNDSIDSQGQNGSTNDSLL
T2 sequence (Q9TST6 whole entry): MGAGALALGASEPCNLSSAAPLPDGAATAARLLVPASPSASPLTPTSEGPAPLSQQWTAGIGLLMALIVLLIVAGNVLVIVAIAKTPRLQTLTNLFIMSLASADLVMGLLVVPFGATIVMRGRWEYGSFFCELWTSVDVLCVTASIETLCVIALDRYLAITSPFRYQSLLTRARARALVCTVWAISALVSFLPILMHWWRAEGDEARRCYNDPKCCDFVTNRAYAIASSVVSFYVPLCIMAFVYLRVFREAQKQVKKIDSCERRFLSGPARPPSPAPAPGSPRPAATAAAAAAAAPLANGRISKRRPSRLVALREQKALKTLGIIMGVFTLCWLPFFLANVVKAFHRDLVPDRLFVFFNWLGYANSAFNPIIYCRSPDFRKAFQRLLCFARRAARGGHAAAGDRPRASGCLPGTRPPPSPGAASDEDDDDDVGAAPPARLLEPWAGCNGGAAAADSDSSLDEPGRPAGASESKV

CC(C)NCC(O)COc1cccnc1 (centres unmarked) [Compound 1, 1-Isopropylamino-3-(3-pyridyloxy)-2-propanol]
ED50 (β2 -receptors; iv): 1.45 mg/kg
LD50 (in vivo): 261 mg/kg
ratio between these two activities (ED50 β2 / ED50 β1) (β1 -receptors [1]): 207.1
selectivity for β1 -receptors versus β2 -receptors, in words (β1 -receptors [1]): outstanding selectivity as β1 -adrenoblocking agent
ED50 (β1 -receptors [2]; iv): 0.007 mg/kg
potency as antagonist of the β1 -receptors relative to propranolol (β1 -receptors [2]): greater than
activity as antagonist of the β1 -receptors, in words (β1 -receptors [2]): extremely active
toxicity, in words (mice; intravenous, mice): low toxicity
LD50 (mice; mice, female, intravenous): 285.2 mg/kg

CC(C)NCC(O)COc1cccnc1N (centres unmarked) [Compound 2, 1-Isopropylamino-3-[(2-amino-3-pyridyl)oxy]-2-propanol]
ED50 (β2 -receptors; [4]): 3.5 mg/kg
LD50 (in vivo): 203 mg/kg
ratio between these two activities (ED50 β2 / ED50 β1) (β1 -receptors [1]): 43.8
selectivity for β1 -receptors versus β2 -receptors, in words (β1 -receptors [1]): high degree of selectivity
ED50 (β1 -receptors [2]; [5]): 0.08 mg/kg
potency as antagonist of the β1 -receptors relative to propranolol (β1 -receptors [2]): approximately equal to
toxicity, in words (mice; intravenous, mice): somewhat less toxic
LD50 (mice; mouse, in vivo, iv): 192.0 mg/kg

CC(=O)Nc1ccc(OCC(O)CNC(C)C)cc1 (centres unmarked) [Compound 3, practolol]
ED50 (β2 -receptors; [4]): 10.4 mg/kg
receptor blocking profile, in words [3]: substantial blocking activity on the β1 -receptors and not on the β2 -receptors
LD50 (in vivo): 41.6 mg/kg
ratio between these two activities (ED50 β2 / ED50 β1) (β1 -receptors [1]): 28.9
selectivity for β1 -receptors versus β2 -receptors, in words (β1 -receptors [1]): approximately thirty times more selectivity against the β1 -receptors than against β2 -receptors
ED50 (β1 -receptors [2]; [5]): 0.36 mg/kg
potency as antagonist of the β1 -receptors relative to propranolol (β1 -receptors [2]): much less active than propranolol
LD50 (mice; mouse, in vivo, iv): 31.6 mg/kg

CC(C)NCC(O)COc1cccc2ccccc12 (centres unmarked) [Compound 4, 1-(isopropylamino)-3-(1-naphthyloxy)-2-propanol]
receptor blocking profile, in words [3]: act more or less indiscriminately on both types of β-receptors

Cc1ccc(OCC(O)CNC(C)C)cn1 (centres unmarked) [Compound 5]
ED50 (β2 -receptors; iv): > 4.1 mg/kg
LD50 (in vivo): 285 mg/kg
ratio between these two activities (ED50 β2 / ED50 β1) (β1 -receptors [1]): > 5.8
selectivity for β1 -receptors versus β2 -receptors, in words (β1 -receptors [1]): rather low degree of selectivity
ED50 (β1 -receptors [2]; iv): 0.7 mg/kg
activity as antagonist of the β1 -receptors, in words (β1 -receptors [2]): not very active
LD50 (mice; mice, female, intravenous): 239.4 mg/kg

CC(C)NCC(O)COc1cccnc1Cl (centres unmarked) [Compound 6]
ED50 (β2 -receptors; iv): 1.35 mg/kg
LD50 (in vivo): 165 mg/kg
ratio between these two activities (ED50 β2 / ED50 β1) (β1 -receptors [1]): 45.0
ED50 (β1 -receptors [2]; iv): 0.03 mg/kg
LD50 (mice; mice, female, intravenous): 180.2 mg/kg
